Data reported in EP3298025B1, “NEW AMINO ACID SEQUENCES WITH MI[…] DERIVED FROM NAJA ATRA CARDIOTOXIN 1 (CTX-1)” (Università degli Studi di Parma, priority 2015, dated 2016).
“And” between values parts separate entries of the source, which are not always exact repeats. Equal values may be shown once. Residues, ends and D or L forms follow the SMILES beside them.

Assays:
[1] = tested on: E. coli ATCC 25922; experiment: antimicrobial activity in presence of NaCl; type: cell-based
Procedure: (§1) Peptides were tested in the ability to inhibit bacterial growth in liquid medium. 50 µl of peptides at a concentration between 0.2 µM and 50 µM were […] E. coli ATCC 25922, Pseudomonas aeruginosa ATCC 27853 and Staphylococcus aureus methicillin resistant ATCC 43300. After 2 hours incubation at 37°C, bacteria were plated on solid culture medium. Bacterial cultures were cultivated without peptides as growth control.
(§2) The bacterial suspension and peptides at differing concentrations were put in contact for about 2 hours at 37°C. After this incubation, 20 µl from every well of the plate were transplanted on solid culture medium, McConkey agar for Gram-negative and Columbia agar with 5% of bovine erythrocytes for Gram-positive bacteria. The inoculum was evenly distributed on the agar medium using a single use sterile handle. After an incubation time of 24 hours at 37°C, the bacterial colonies (cfu) were counted.

[2] = tested on: MRSA ATCC 43300; experiment: antimicrobial activity in presence of Muller-Hinton 20%; type: cell-based, Staphylococcus aureus; details: 20% of Muller-Hinton medium
Procedure: This example verifies the peptides antimicrobial activity in presence of a concentration of 20% of Muller-Hinton liquid medium, characterized by the presence of salts with high concentration.
Peptides were tested in the ability to inhibit bacterial growth in liquid medium. 50 µl of peptides at a concentration between 3.1 µg/ml (NCP-0=1.4µM; NCP-2=[…]; NCP-3=1.3 µM) and 100 µg/ml (NCP-0=46.3 µM; NCP-2=43.2 µM; NCP-3=41.6 µM) were added in microtiter plate wells with phosphate buffer 10 mM with Muller-Hinton liquid medium al the final concentration of 20% and one of these bacteria: E. coli ATCC 25922, Pseudomonas aeruginosa ATCC 27853, Staphylococcus aureus ATCC 25923 and Staphylococcus aureus methicillin resistant ATCC 43300. After 2 hours incubation at 37°C, bacteria were transplanted on solid culture medium. Bacterial cultures were cultivated without peptides as growth control.

[3] = tested on: MRSA ATCC 43400; experiment: micro-dilution in liquid medium and transplant on solid medium, Gram-positive bacteria; type: cell-based, Staphylococcus aureus; details: 2 hours at 37°C, transplant on agar
Procedure: (§3) For each bacterial strain 3-5 morphologically similar colonies from fresh cultures were taken and inoculated in Brain Heart Infusion broth, then incubated at 37°C in agitation at 225 r.p.m. for about 3-4 hours. Then the bacterial suspension was centrifuged at 1000 G for 20 minutes and the pellet resuspended in phosphate buffer pH 7, 10 mM. The turbidity of the bacterial suspension was measured using a spectrophotometer with absorbance of 600 nm; the range 0,08-0,13 equates to about 10^8 cfu/ml. The bacterial suspension was diluted 1:100 in phosphate buffer 10mM to obtain a bacterial concentration of about 10^6 cfu/ml. Within 30 minutes 50 µl of the suspension 10^6 cfu/ml were inoculated in each well of the microtiter plate, to obtain a bacterial concentration of about 5x10^5 cfu/ml.
The peptides ability to inhibit the bacterial growth in liquid cultures was tested. 50 µl of each peptides solutions of about 0.2-50 µM were added in microtiter plates with 96 wells with liquid culture medium and one of these bacterial strains: Staphylococcus aureus ATCC 25923, MRSA ATCC 43300, Streptococcus agalactiae ATCC 13813 and Enterococcus hirae ATCC 10541. […]
The bacterial suspension and differing peptides concentrations were put in contact for about 2 hours at 37°C. […] After an incubation time of 24 hours at 37°C, the bacterial colonies (cfu) were counted.

[4] = tested on: Staphylococcus aureus ATCC 22953; experiment: as above; type: cell-based; details: 2 hours at 37°C, transplant on agar
Procedure: as §3
(§4) The peptides ability to inhibit the bacterial growth in liquid cultures was tested. 50 µl of each peptides solutions of about 0.2-50 µM were added in microtiter plates with 96 wells with liquid culture medium and one of these bacterial strains: Staphylococcus aureus ATCC 25923, MRSA ATCC 43300, Streptococcus agalactiae ATCC 13813 and Enterococcus hirae ATCC 10541. After 2 hours of incubation at 37°C, bacterial suspensions were put on solid culture medium. Bacterial cultures were cultivated without peptides as growth control.
(§5) The bacterial suspension and differing peptides concentrations were put in contact for about 2 hours at 37°C. After this incubation, 20 µl from each well of the plate were transplanted on solid culture medium, Columbia agar with 5% of bovine erythrocytes for Gram-positive bacteria. The inoculum was evenly distributed on the agar medium with the aid of a sterile disposable handle. After an incubation time of 24 hours at 37°C, the bacterial colonies (cfu) were counted.

[5] = tested on: Streptococcus agalactiae ATCC 13813; experiment: as above; type: cell-based; details: 2 hours at 37°C, transplant on agar
Procedure: as §3, §4, §5

[6] = tested on: Enterococcus hirae ATCC 10541; experiment: as above; type: cell-based; details: 2 hours at 37°C, transplant on agar
Procedure: as §3, §4, §5

[7] = tested on: Pseudomonas aeruginosa ATCC 27853; experiment: antimicrobial activity in presence of NaCl; type: cell-based
Procedure: as §1, with “concentration” for “concentration between 0.2 µM and 50 µM were”
as §2

[8] = tested on: MRSA ATCC 43300; experiment: antimicrobial activity in presence of NaCl; type: cell-based, Staphylococcus aureus
Procedure: as §1, with “concentration” for “concentration between 0.2 µM and 50 µM were”
as §2

[9] = tested on: E. coli ML-35pYC; experiment: membrane permeabilization assay (CENTA outer membrane, ONPG inner membrane); type: cell-based; details: peptide 12.5 µg/ml; absorbance every 10 minutes for 240 minutes
Procedure: Methods: to test the bacterial membrane permeabilization caused by the peptides of the invention, E. coli ML-35pYC strain was used. This bacterial strain express ampicillin resistence, a constitutive expression of cytoplasmic β-galactosidase and is engineered with a plasmid for a periplasmic β-lactamase synthesis. Sixty microliters (60 µl) of bacterial suspension, containing E. coli ML-35pYC strain, were added to 60 µl of ONPG solution (15 mM) or to 60 µl of CENTA (1,5 mM) diluted in phosphate buffer. Subsequently 120 µl of the examined peptide were added, to obtain a final concentration of 12.5 µg/ml (NCP-2=5,4 µM, NCP-3=5.2 µM). The absorbance value was registered at […] for ONPG and at 405 nm for CENTA, every 10 minutes for 240 minutes to assess the reaction's kinetics.

[10] = 125 mM NaCl, peptide 12.5 µg/ml
[11] = 250 mM NaCl, peptide 12.5 µg/ml

`CC[C@H](C)[C@H](NC(=O)[C@H](CCCCN)NC(=O)[C@H](Cc1ccc(O)cc1)NC(=O)[C@H](CS)NC(=O)[C@H](CC(C)C)NC(=O)[C@H](CC(N)=O)NC(=O)[C@H](CCCCN)NC(=O)CNC(=O)[C@H](C)NC(=O)[C@@H]1CCCN1C(=O)[C@H](CS)NC(=O)[C@@H](NC(=O)[C@H](CCCCN)NC(=O)[C@H](CO)NC(=O)[C@H](C)NC(=O)[C@@H](NC(=O)[C@@H]1CCCN1C(=O)[C@@H](NC(=O)[C@H](CC(C)C)NC(=O)[C@@H](N)CCCCN)[C@@H](C)CC)[C@@H](C)CC)[C@@H](C)O)C(=O)O` [NCP-0, K LIPIA SKT CPA GKN LCY KI] (H-KLIPIASKTCPAGKNLCYKI-OH; N-terminus and C-terminus assumed) was tested, and the “Antimicrobial activity (% to control)” value ([1]; 10 mM NaCl, peptide 12.5 µg/ml) was 0%, the “Antimicrobial activity (% to control)” value ([1]; 10 mM NaCl, peptide 100 µg/ml) was 3% and the “Antimicrobial activity (% to control)” value [1, 10] was 0%. For the same compound, the “Antimicrobial activity (% to control)” value ([1]; 125 mM NaCl, peptide 100 µg/ml) was 0%, the “Antimicrobial activity (% to control)” value [1, 11] was 0% and the “Antimicrobial activity (% to control)” value ([1]; 250 mM NaCl, peptide 100 µg/ml) was 0%. For the same compound, the “Antimicrobial activity (% to control)” value ([2]; peptide 3.1 µg/ml) was 0%, the “Antimicrobial activity (% to control)” value ([2]; peptide 6.3 µg/ml) was 0% and the “Antimicrobial activity (% to control)” value ([2]; peptide 12.5 µg/ml) was 0%. For the same compound, the “Antimicrobial activity (% to control)” value ([2]; peptide 100 µg/ml) was 0%, the LD90 [3] was > 100 µg/ml and > 46.3 µM and the LD99 [3] was > 200 µg/ml and > 92.6 µM. The LD90 [4] was > 100 µg/ml and > 46.3 µM, the LD99 [4] was > 200 µg/ml and > 92.6 µM and the LD90 [5] was 100 µg/ml and 46.3 µM. For the same compound, the LD99 [5] was > 100 µg/ml and > 46.3 µM, the LD90 [6] was > 100 µg/ml and > 46.3 µM and the LD99 [6] was > 200 µg/ml and > 92.6 µM. The “Antimicrobial activity (% to control)” value ([7]; 10 mM NaCl, peptide 12.5 µg/ml) was 0%, the “Antimicrobial activity (% to control)” value ([7]; 10 mM NaCl, peptide 100 µg/ml) was 2% and the “Antimicrobial activity (% to control)” value [7, 10] was 0%. The “Antimicrobial activity (% to control)” value ([7]; 125 mM NaCl, peptide 100 µg/ml) was 0%, the “Antimicrobial activity (% to control)” value [7, 11] was 0% and the “Antimicrobial activity (% to control)” value ([7]; 250 mM NaCl, peptide 100 µg/ml) was 0%. The “Antimicrobial activity (% to control)” value ([8]; 10 mM NaCl, peptide 12.5 µg/ml) was 0%, the “Antimicrobial activity (% to control)” value ([8]; 10 mM NaCl, peptide 100 µg/ml) was 2% and the “Antimicrobial activity (% to control)” value [8, 10] was 0%. The “Antimicrobial activity (% to control)” value ([8]; 125 mM NaCl, peptide 100 µg/ml) was 0%, the “Antimicrobial activity (% to control)” value [8, 11] was 0% and the “Antimicrobial activity (% to control)” value ([8]; 250 mM NaCl, peptide 100 µg/ml) was 0%. For the same compound, the “damage to the inner membrane (ONPG)” value [9] was “had not demonstrated activity on outer or inner membrane” and the “damage to the outer membrane (CENTA)” value [9] was “had not demonstrated activity on outer or inner membrane”.
